Measurements taken from patent US10251909B2 (Board of Regents, the University of Texas System, priority 2007, dated 2019).
Like-named read-outs stand apart in the source and are kept apart here.

How the values were obtained:
[1] = Insulin responsiveness by hyperinsulinemic euglycemic pump procedure, two subjects with uric acid stones (Example 2); type: in vivo, Human; details: 49 mEq K, 24.5 mEq Mg per day for 4 weeks
Method: In two subjects with uric acid stones, insulin responsiveness was determined before and after KMgCitrate treatment (49 mEq K, 24.5 mEq Mg per day for 4 weeks) by a hyperinsulinemic euglycemic pump procedure. During intravenous infusion of insulin, glucose was infused at a rate sufficient to maintain a constant glucose concentration. Insulin responsiveness was determined from the glucose disposal rate.

[2] = Odvina, 42 mEq K qd; cited from earlier work
[3] = cited from earlier work
[4] = cited from earlier work; remark: listed apart in the source
[5] = cited from earlier work; remark: listed apart in the source
[6] = Blood pressure during 5 months of KMgCitrate or potassium chloride with hydrochlorothiazide, 21 normal subjects (Example 1); type: in vivo, Human; details: for fall in diastolic blood pressure (supine) / fall in systolic blood pressure (supine): 42 mEq K per day with hydrochlorothiazide 50 mg/day, monthly for 5 months versus baseline, normal subjects; for effect on blood pressure: normal subjects given hydrochlorothiazide concurrently for 5 months, as early as one month and as long as 5 months
Excerpt: FIG. 2 graphically illustrates the effect of KMgCitrate (K4MgCit2) on blood pressure in 21 normal subjects. Changes in systolic and diastolic blood pressures from baseline (before treatment) occurring during 5 months of treatment with potassium chloride (KCl) or KMgCitrate with hydrochlorothiazide are shown individually. * p<0.05 from time zero, ** p<0.01.
In the recently published study by Odvina et al. (Am J Therap 13: 101-108, 2006) that examined the value of KMgCitrate in the prevention of thiazide-induced hypomagnesemia, the unpublished data on blood pressure were extracted. Twenty-one normal subjects participated in the trial. All were started on hydrochorothiazide 50 mg/day. Ten subjects took simultaneously KMgCitrate at a dose of 42 mEq K and […] per day, while 11 subjects received potassium chloride (42 mEq/day). Supine blood pressures were taken before and each month for 5 months. FIG. 3 compares the systolic and diastolic blood pressures between the two groups.

[7] = cited from earlier work; remark: listed apart in the source
[8] = Tolerability of KMgCitrate; type: in vivo; details: usual dosage about 40 mEq potassium, 20 mEq magnesium, 60 mEq citrate
[9] = both groups, before potassium supplementation; cited from earlier work
[10] = thirty subjects with hypomagnesemia on thiazide alone; cited from earlier work
[11] = in vivo; cited from earlier work
[12] = 49 mEq K, 24.5 mEq Mg/day for 3 weeks while continuing hydrochlorothiazide 50 mg/day
[13] = during therapy versus control phase, constant metabolic diet
[14] = during therapy, constant metabolic diet

## O=C([O-])CC(O)(CC(=O)[O-])C(=O)[O-].O=C([O-])CC(O)(CC(=O)[O-])C(=O)[O-].[K+].[K+].[K+].[K+].[Mg+2] [KMgCitrate, tetrapotassium monomagnesium dicitrate]
[1]; 2.2 mg/m^2/min before treatment
  glucose disposal rate after treatment, second patient: 2.8 mg/m^2/min
[1]; 3.2 mg/m^2/min before treatment
  glucose disposal rate after treatment, first patient: 4.3 mg/m^2/min
[1]; hyperinsulinemic euglycemic pump
  insulin responsiveness: improved insulin responsiveness
[2]
  Increment in Urinary Magnesium: 57 to 63 mg/day
  Increment in Urinary Potassium: 30–50 mEq/day
[3]; [12]
  serum potassium concentration: increased significantly
  serum potassium determinations reaching normal limits: 81.7%
[3]; Ruml, 49 mEq K qd
  Increment in Urinary Magnesium: 38 mg/day
  Increment in Urinary Potassium: 33 mEq/day
[4]; single oral load (KMgCitrate 49 mEq potassium, 24.5 mEq magnesium, 73.5 mEq citrate), timed urine 24 hours, 15 normal volunteers
  peak excretion rate of urinary potassium: comparable to that of potassium citrate and potassium chloride
[4]; single oral load, 24.5-25 mEq magnesium, 15 normal volunteers
  peak excretion rate and peak time of urinary magnesium: comparable between KMgCitrate and magnesium citrate
[4]; single oral load, 24.5-25 mEq magnesium, potassium citrate as control
  cumulative increment in urinary magnesium: equivalent between KMgCitrate and magnesium citrate
[4]; single oral load, 49-50 mEq potassium, 15 normal volunteers
  peak time (time to reach peak excretion rate) of urinary potassium: about 4 hours
[5]; 42 mEq K, 21 mEq Mg/day for up to 3 years
  relative risk of treatment failure compared with placebo: 0.16 (95% confidence interval of 0.05-0.46)
[5]; 42 mEq K, 21 mEq Mg/day for up to 3 years, placebo 63.6%
  patients in whom new calculi formed: 12.6%
[5]; randomized trial, patients with calcium oxalate nephrolithiasis
  stone formation rate: dramatically reduced
[6]
  fall in diastolic blood pressure (supine): significant only in the KMgCitrate group
  fall in systolic blood pressure (supine): significant only in the KMgCitrate group
  effect on blood pressure: significant reduction
[7]; Pak, 49 mEq K qd
  Increment in Urinary Magnesium: 44 mg/day
  Increment in Urinary Potassium: 51 mEq/day
[7]; at the same dose of potassium, versus potassium citrate
  alkali load: greater alkali load than potassium citrate
[7]; [13]
  urinary pH: rose from the control phase
  urinary potassium: rose from the control phase
[7]; [14]
  inhibitor activity of brushite: increased
  inhibitor activity of calcium oxalate: increased
  urinary saturation of calcium oxalate (activity product): reduced
  urinary saturation of uric acid (content of undissociated uric acid): reduced
[8]
  tolerability / side effect profile: well tolerated, with a low side effect profile

## NS(=O)(=O)c1cc2c(cc1Cl)NCNS2(=O)=O [thiazide, hydrochlorothiazide]
[9]
  serum potassium concentration on thiazide alone: decreased significantly
[10]
  serum magnesium concentration during thiazide alone versus before treatment: significantly lower
[3]; hydrochlorothiazide 50 mg/day for 3 weeks, normal subjects
  serum potassium concentration on thiazide alone: decreased significantly to below the normal range in most subjects

## [Cl-].[K+] [potassium chloride, reference compound]
[11]
  urinary calcium: has no effect
[6]
  fall in diastolic blood pressure (supine): trend for systolic and diastolic blood pressures to decrease
  fall in systolic blood pressure (supine): trend for systolic and diastolic blood pressures to decrease
  effect on blood pressure: no statistically significant effect

## O=C([O-])CC(O)(CC(=O)[O-])C(=O)[O-].[K+].[K+].[K+] [Potassium citrate, potassium citrate, reference compound]
[7]; [13]
  urinary citrate: did not raise pH or citrate as much
  urinary pH: did not raise pH or citrate as much
[7]; [14]
  urinary magnesium excretion: did not augment
